Read-outs that look alike come from different tables or passages of the source.
Key:
AURKA = target: T1, AURKA (Homo sapiens, UniProt O14965); type: cell-based
T1 construct: endogenous in cells; host or cells: Jurkat cells
T1 sequence (O14965 1-403): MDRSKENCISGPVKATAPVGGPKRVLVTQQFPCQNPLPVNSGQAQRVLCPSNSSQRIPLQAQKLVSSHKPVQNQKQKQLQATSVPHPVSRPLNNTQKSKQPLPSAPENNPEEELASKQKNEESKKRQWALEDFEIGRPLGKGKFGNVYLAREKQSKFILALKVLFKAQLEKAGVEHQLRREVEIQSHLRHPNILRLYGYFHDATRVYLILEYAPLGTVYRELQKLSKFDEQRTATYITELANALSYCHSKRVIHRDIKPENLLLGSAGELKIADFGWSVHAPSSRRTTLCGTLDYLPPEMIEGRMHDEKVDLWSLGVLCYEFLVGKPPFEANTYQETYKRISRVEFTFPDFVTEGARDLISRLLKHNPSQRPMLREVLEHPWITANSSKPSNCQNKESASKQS
Procedure, shortened: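 Jurkat cells seeded at 1×10^6 cells/500 µL and treated with compound; lysates run on SDS-PAGE, blotted to nitrocellulose and probed overnight at 4°C for AURKA. Chemiluminescent or fluorescent band intensity fitted to a curve to give DC50 for protein degradation.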

H82 cells = assay: cells; type: cell-based; conditions: Homo sapiens
Procedure, shortened: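 H82 cells in RPMI1640 + 10% FBS exposed to compound (0.1% DMSO final) for 6 days at 37 °C, 5% CO2. Viability read by CellTiter-Glo ATP luminescence, normalised to DMSO and medium controls; IC50 from nonlinear regression of the dose–survival curve.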

[1] = 100 nM compound, Jurkat cells, 24 h, Table 2
[2] = 1 µM compound, Jurkat cells, 24 h, Table 2
[3] = NCI-H82, H82 cells, 4000 cells/well, CellTiter-Glo, read-out: IC50 in H82 Cells
[4] = NCI-H82, read-out: IC50 in H82 Cells

Row | SMILES | Percentage of AURKA Degradation Induced by 100 nM Compound in Jurkat Cells (AURKA; [1]) | Percentage of AURKA Degradation Induced by 1 µM Compound in Jurkat Cells (AURKA; [2]) | IC50 (H82 cells; [3]) | IC50 (H82 cells; [4]) | Percentage of AURKA Degradation Induced by 100 nM Compound in Jurkat Cells (AURKA) | Percentage of AURKA Degradation Induced by 1 µM Compound in Jurkat Cells (AURKA)
1 | O=C1CCN(c2ccc(N3CCC(C4CN(C(=O)C56CC(Nc7ncc8c(n7)-c7ccc(Cl)cc7C(c7c(F)cccc7F)=NC8)(C5)C6)C4)CC3)nc2)C(=O)N1 [Compound A293] | +++ (Degradation > 70%) | +++ (Degradation > 70%) | < 1000 nM |  |  | 
2 | CN1CCN(CC2CN(c3cncc(N4CCC(=O)NC4=O)c3)C2)Cc2cc(Nc3ncc4c(n3)-c3ccc(Cl)cc3C(c3c(F)cccc3F)=NC4)ccc21 [Compound A225] | +++ (Degradation > 70%) | + (Degradation ≤ 30%) | < 1000 nM |  |  | 
3 | O=C1CCN(c2ccc(N3CCC(C(=O)N4CCN(c5ccc(Nc6ncc7c(n6)-c6ccc(Cl)cc6C(c6c(F)cccc6F)=NC7)cc5)CC4)CC3)nc2)C(=O)N1 [Compound A229] | +++ (Degradation > 70%) | +++ (Degradation > 70%) | < 1000 nM |  |  | 
4 | O=C1CCN(c2cccc(N3CCC(N4CC(c5cccc(Nc6ncc7c(n6)-c6ccc(Cl)cc6C(c6c(F)cccc6F)=NC7)c5)C4)C3)c2)C(=O)N1 (stereo not drawn) [Compound A170] | +++ (Degradation > 70%) | +++ (Degradation > 70%) | < 1000 nM |  |  | 
5 | O=C1CCN(c2ccc(N3CCN(C(=O)C4CCN(C56CC(Nc7ncc8c(n7)-c7ccc(Cl)cc7C(c7c(F)cccc7F)=NC8)(C5)C6)C(=O)C4)CC3)nc2)C(=O)N1 (stereo not drawn) [Compound A284] | +++ (Degradation > 70%) | ++ (30% < Degradation ≤ 70%) | < 1000 nM |  |  | 
6 | O=C1CCN(c2cccc(N3CC(CN4CCN(c5cccc(Nc6ncc7c(n6)-c6ccc(Cl)cc6C(c6c(F)cccc6F)=NC7)c5)CC4)C3)c2)C(=O)N1 [Compound A140] | +++ (Degradation > 70%) | +++ (Degradation > 70%) | < 1000 nM |  |  | 
7 | CN(CCN1CCN(c2ncc(N3CCC(=O)NC3=O)s2)CC1)C(=O)c1ccc(Nc2ncc3c(n2)-c2ccc(C4CC4)cc2C(c2c(F)cccc2F)=NC3)cc1 [Compound A135] | +++ (Degradation > 70%) | ++ (30% < Degradation ≤ 70%) | < 1000 nM |  |  | 
8 | O=C1CCN(c2ccc(N3CC4(CC(N5CCN(c6ccc(Nc7ncc8c(n7)-c7ccc(Cl)cc7C(c7nccs7)=NC8)cc6)C(=O)C5)CO4)C3)nc2)C(=O)N1 (stereo not drawn) [Compound A330] | +++ (Degradation > 70%) | +++ (Degradation > 70%) | < 1000 nM |  |  | 
9 | O=C1CCN(c2cccc(N3CC(CC#Cc4cccc(Nc5ncc6c(n5)-c5ccc(Cl)cc5C(c5c(F)cccc5F)=NC6)c4)C3)c2)C(=O)N1 [Compound A133] | ++ (30% < Degradation ≤ 70%) | +++ (Degradation > 70%) | < 1000 nM |  |  | 
10 | COc1ccccc1C1=NCc2cnc(Nc3ccc(C(=O)NC4CC5(CCN(c6ccc(N7CCC(=O)NC7=O)cn6)CC5)C4)cc3)nc2-c2ccncc21 [Compound A137] | +++ (Degradation > 70%) | +++ (Degradation > 70%) | < 1000 nM |  |  | 
11 | COc1cc(Nc2ncc3c(n2)-c2ccc(Cl)cc2C(c2c(F)cccc2OC)=NC3)ccc1N1CC(CN2CCN(c3ccc(N4CCC(=O)NC4=O)cn3)CC2)C1 [Compound A261] | +++ (Degradation > 70%) | +++ (Degradation > 70%) | < 1000 nM |  |  | 
12 | Cn1nc(N2CCC(=O)NC2=O)c2ccc(N3CC4COCC(C3)N4C3CCN(c4ccc(Nc5ncc6c(n5)-c5ccc(Cl)cc5C(c5c(F)cccc5F)=NC6)cc4)CC3)cc21 [Compound A362] | +++ (Degradation > 70%) | ++ (30% < Degradation ≤ 70%) |  | < 1000 nM |  | 
13 | O=C1CCN(c2ccc(N3CC(O)(CN4CCN(c5ccc(Nc6ncc7c(n6)-c6ccc(Cl)cc6C(c6c(F)cccc6F)=NC7)cc5)C(=O)C4)C3)nc2)C(=O)N1 [Compound A299] |  |  |  | < 1000 nM | +++ (key: +: Degradation ≤ 30%; ++: 30% < Degradation ≤ 70%; +++: Degradation > 70%) | +++ (key: +: Degradation ≤ 30%; ++: 30% < Degradation ≤ 70%; +++: Degradation > 70%)
14 | O=C1CCN(c2cccc(N3CCN(C4CN(c5cccc(Nc6ncc7c(n6)-c6ccc(Cl)cc6C(c6c(F)cccc6F)=NC7)c5)C4)CC3)c2)C(=O)N1 [Compound A164] | ++ (30% < Degradation ≤ 70%) | +++ (Degradation > 70%) | < 1000 nM |  |  | 
15 | O=C1CCN(c2ccc(N3CCOC4(CC(N5CCN(C67CC(Nc8ncc9c(n8)-c8ccc(Cl)cc8C(c8c(F)cccc8F)=NC9)(C6)C7)C(=O)C5)C4)C3)nc2)C(=O)N1 (single isomer, unassigned) [Compound A348] | +++ (Degradation > 70%) | ++ (30% < Degradation ≤ 70%) |  | < 1000 nM |  | 
16 | O=C1CCN(c2cccc(N3CCN(CCc4cccc(Nc5ncc6c(n5)-c5ccc(Cl)cc5C(c5c(F)cccc5F)=NC6)c4)CC3)c2)C(=O)N1 [Compound A147] | +++ (Degradation > 70%) | +++ (Degradation > 70%) | < 1000 nM |  |  | 
17 | Cc1ccc2c(c1)C(c1c(F)cccc1F)=NCc1cnc(Nc3ccc(C(=O)NC4CC5(CCN(c6ccc(N7CCC(=O)NC7=O)cn6)CC5)C4)cc3)nc1-2 [Compound A118] | ++ (30% < Degradation ≤ 70%) | +++ (Degradation > 70%) | < 1000 nM |  |  | 
18 | O=C1CCN(c2ccc(N3CCC(N4CCN(c5ccc(Nc6ncc7c(n6)-c6ccc(Cl)cc6C(c6c(F)cccc6F)=NC7)cn5)CC4)CC3)nc2)C(=O)N1 [Compound A213] | +++ (Degradation > 70%) | +++ (Degradation > 70%) | < 1000 nM |  |  | 
19 | O=C1CCN(c2ccc(N3CCN(CC4(F)CN(c5ccc(Nc6ncc7c(n6)-c6ccc(Cl)cc6C(c6c(F)cccc6F)=NC7)cc5)C4)CC3)nc2)C(=O)N1 [Compound A259] | +++ (Degradation > 70%) | +++ (Degradation > 70%) | < 1000 nM |  |  | 
20 | O=C1CCN(c2cccc(N3CCN(CC4CN(c5cccc(Nc6ncc7c(n6)-c6ccc(Cl)cc6C(c6c(F)cccc6F)=NC7)c5)C4)CC3)c2)C(=O)N1 [Compound A141] | +++ (Degradation > 70%) | +++ (Degradation > 70%) | < 1000 nM |  |  | 
